From patent publication US20050222383A1, “Prostasin substrates and inhibitors” (IRM LLC, priority 2004, published 2005)

Legend:
[1] = molecular target: T1, prostasin (Homo sapiens, UniProt Q16651); assay: Cation/anion inhibition of prostasin activity against Ac-KHYR-acc; format: biochemical; details: read-out: Inhibition constants
T1 construct: eliminate the N-terminal signal peptide domain and light chain and the C-terminal GPI signal domain; honeybee melittin signal peptide (21 aa) (N); made in house; host or cells: Sf9 insect cells, baculovirus (Bac-to-Bac, pFastBac1)
T1 sequence (Q16651 45-322 limits assumed): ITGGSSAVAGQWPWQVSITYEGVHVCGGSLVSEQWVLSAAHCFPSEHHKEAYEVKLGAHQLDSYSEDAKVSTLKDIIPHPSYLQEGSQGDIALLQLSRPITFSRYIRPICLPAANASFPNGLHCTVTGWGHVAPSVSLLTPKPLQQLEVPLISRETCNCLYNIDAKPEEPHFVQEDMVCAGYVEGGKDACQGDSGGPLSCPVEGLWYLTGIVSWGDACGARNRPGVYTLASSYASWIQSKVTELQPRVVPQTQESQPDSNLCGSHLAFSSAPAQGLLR

[2] = molecular target: T1, prostasin; assay: Prostasin assayed in tetrapeptide substrate libraries with a set concentration of sodium, calcium or zinc; format: biochemical; details: for effect on substrate specificity profile / decrease in activity across the libraries: tetrapeptide substrate libraries; for decrease in activity across the libraries: set concentration of ion
Protocol: P1-P4-Fluorogenic substrate libraries were synthesized as previously described (Wang et al, J. Biol. Chem., 278: 15800-15808, 2003). Prostasin was diluted in assay buffer and added to the library plates. In the two-position fixed tetrapeptide substrate library, the final substrate concentration was approximately 0.25 μM/substrate/well with a total of 361 substrates per well. Each variable position had one of 19 amino acids with cysteine excluded and methionine replaced by its isostere norleucine.
Further, prostasin was assayed in the tetrapeptide substrate libraries with a set concentration of sodium, calcium or zinc to determine the effect of each on overall substrate specificity.

[3] = molecular target: T1, prostasin; assay: Assays with transition metals, prostasin activity with Ac-KHYR-acmc; format: biochemical; details: for enhancement effect: increase of enzymatic activity: Ac-KHYR-acmc substrate, sub inhibitory metal ion concentrations; for increases in IC50 values: assays with KHYR substrate
Protocol: (§1) Proteolytic activity of the purified prostasin was monitored by measuring the accumulation of the fluorophore 7-amino-3-carbamoylmethyl-4-methylcoumarin (acmc) or 7-amino-4-carbamoylmethylcoumarin (acc) produced by the cleavage of the tetrapeptide substrate Ac-KHYR-acmc, Ac-KHYR-acc or Ac-PRLR-acmc in assay buffer (50 mM Tris-Cl pH 9.0, 0.25% CHAPS; 10 mM CHES pH 9.0 (37° C.), 0.25% CHAPS; or 10 mM Hepes pH 7.4 (37° C.), 0.25% CHAPS) at 37° C. Assays were run in 96 or 384-well black microtiter plates. Data was collected with a Gemini XS plate reader (Molecular Devices) at λex=380 nm and λem=450 nm.

[4] = molecular target: T1, prostasin; assay: Michaelis-Menten kinetics of KHYR-acmc and PRLR-acmc in the presence of zinc; format: biochemical
Protocol: as §1
The effect of zinc on the Michelis-Menten kinetics of KHYR-acmc and PRLR-acmc was measured in the presence of 20 μM zinc(II). […] The kcat of KHYR-acmc was 2.7 fold higher and the kcat of PRLR-acmc was 1.6 fold lower. These changes translated into a 30-fold increase in specificity for KHYR over PRLR in the presence of zinc.

[5] = molecular target: T1, prostasin; assay: Inhibition assays of macromolecular inhibitors, prostasin activity against Ac-KHYR-acmc; format: biochemical; details: Ac-KHYR-acmc substrate, Tris-CHAPS buffer; read-out: classical inhibition constants (Ki)
Protocol: as §1
The inhibition constants of macromolecular inhibitors were calculated for prostasin. Prostasin activity against Ac-KHYR-acmc was measured in Tris-CHAPS buffer, as in “Enzyme Assays,” in the presence of 10 μM-170 pM aprotinin and soybean trypsin inhibitor (SBTI), 1 μM-17 pM α1-antitrypsin, and 200 nM-3.3 pM α1-antichymotrypsin. Rates were plotted in Prism (GraphPad) and classical inhibition constants (Ki) were calculated using the results of non-linear regression.

[6] = test system: Xenopus kidney epithelial cell line; details: exposure of the apical membrane; cited from earlier work
[7] = Ac-KHYR-acc substrate, CHES-CHAPS buffer, 37° C.
[8] = in the presence of 20 μM zinc(II)

[Ca+2].[Cl-].[Cl-] [CaCl2]
Ki [1, 7]: 260 µM

[Cl-].[Cl-].[Co+2] [CoCl2]
Ki [1]: 5 µM

[Cl-].[K+] [KCl]
Ki [1, 7]: 5800 µM

[Cl-].[Li+] [LiCl]
Ki [1, 7]: 2400 µM

[Cl-].[Cl-].[Mg+2] [MgCl2]
Ki [1, 7]: 390 µM

[Cl-].[Na+] [NaCl]
Ki [1]: 5300 µM

[F-].[Na+] [NaF]
Ki [1, 7]: 4200 µM

[I-].[Na+] [NaI]
Ki [1, 7]: 4500 µM

[Ca+2] [calcium]
effect on substrate specificity profile [2]: Neither sodium nor calcium changed the substrate profile | decrease in activity across the libraries [2]: 25-35%

[Co+2] [cobalt]
enhancement effect: increase of enzymatic activity [3]: No enhancement in activity | increases in IC50 values [3]: 10 fold

[Cu+2] [copper]
increases in IC50 values [3]: 25 fold

[Ni+2] [nickel]
enhancement effect: increase of enzymatic activity [3]: 1.4 fold | increases in IC50 values [3]: 100 fold

[Na+] [sodium]
effect on substrate specificity profile [2]: Neither sodium nor calcium changed the substrate profile | decrease in activity across the libraries [2]: 50-60%

[Zn+2] [zinc]
increases in IC50 values [3]: 200 fold | relative increase in the activity of substrates with arginine in P1 and histidine in P3 ([2]; P1-P3 library): three fold relative increase | effect on substrate specificity profile [2]: did not alter the specificity profiles

Ac-KHYR-acmc
decrease in the Km [4, 8]: 4 fold | kcat higher [4, 8]: 2.7 fold | increase in specificity for KHYR over PRLR ([4]; in the presence of zinc): 30 fold

Ac-PRLR-acmc
increase in the Km [4, 8]: 2 fold | kcat lower [4, 8]: 1.6 fold

aprotinin
Ki [5]: 0.0025 µM | transepithelial sodium transport [6]: reduces transepithelial sodium transport

B1: α1-antichymotrypsin (protein, UniProt P01011 24-423, looked up)
Alpha-1-antichymotrypsin: HPNSPLDEENLTQENQDRGTHVDLGLASANVDFAFSLYKQLVLKAPDKNVIFSPLSISTALAFLSLGAHNTTLTEILKGLKFNLTETSEAEIHQSFQHLLRTLNQSSDELQLSMGNAMFVKEQLSLLDRFTEDAKRLYGSEAFATDFQDSAAAKKLINDYVKNGTRGKITDLIKDLDSQTMMVLVNYIFFKAKWEMPFDPQDTHQSRFYLSKKKWVMVPMMSLHHLTIPYFRDEELSCTVVELKYTGNASALFILPDQDKMEEVEAMLLPETLKRWRDSLEFREIGELYLPKFSISRDYNLNDILLQLGIEEAFTSKADLSGITGARNLAVSQVVHKAVLDVFEEGTEASAATAVKITLLSALVETRTIVRFNRPFLMIIVPTDTQNIFFMSKVTNPKQA
Ki [5]: > 0.2 µM
